In patent US20210095322A1, “HIGH-PURITY STEVIOL GLYCOSIDES” (PureCircle USA Inc., priority 2018, published 2021):
Where two headings read alike, the source gives them in different places.

How the values were obtained:
[1] = Isosweet determination (2-AFC) vs sucrose in acidified water, sweetness potency; assay type: in vivo, human; conditions: pH = 3.2
Protocol: As an example, Reb AM was evaluated.

[2] = Flavor modification of chocolate flavored dairy protein shake, sensory panel; assay type: in vivo, human; parameters: Sweet Intensity mean score / Bitterness mean score / Metallic Note mean score / Cocoa Flavor mean score / Dairy Note mean score / Whey Protein Note mean score / Vanilla Note mean score / Sweet Aftertaste mean score / Bitter Aftertaste mean score / Overall Liking mean score: scale not given here
Description: Thirty trained panelists evaluated two samples of chocolate flavored dairy protein shake for overall acceptance and attribute intensities (cocoa flavor, dairy note, whey protein, vanilla, metallic, sweetness, bitterness and aftertaste). The two samples included: 1) no sugar added “Control” sample containing 300 ppm PureCircle Reb A and 2) no sugar added “Test” sample containing 300 ppm PureCircle Reb A and 50 ppm Reb AM. The objective of the test was to determine if the addition of Reb AM affects the flavor profile of a milk product.
The test objective is to determine if the flavor profile and overall acceptance of a control sample of dairy beverage application differs from a Test sample of the same beverage containing Reb AM.

[3] = Sweetness perception threshold (FEMA method, 2-AFC vs 1.5% sugar) in neutral water; assay type: in vivo, human; conditions: for % Frequency / PC (paired comparison count, panelists choosing the sample as sweeter): 2-AFC, n = 30
Protocol: A series of experiments were performed to evaluate the effect of Reb AM on taste and flavor profile. The sweetness and taste/flavor modification can influence each other in food and beverage applications. To determine the influence of the taste and flavor modification in different applications, the FEMA (Flavor and Extract Manufacturing Association) prescribes a sensory method that determines the sweetness perception threshold determination presented in Experiment 1, which is discussed below.
Experiment 1 provides the estimate of Reb AM concentration in water that barely contributes to sweetness perception. […] The summary of sweetness perception threshold for selected steviol glycosides is below in Table 11.
Therefore we selected 50 ppm of Reb AM as the recognition threshold concentration.

[4] = Flavor modification of Raspberry Watermelon Coconut Water, sensory panel; assay type: in vivo, human; parameters: Sweet Intensity mean score / Bitter Intensity mean score / Astringency mean score / Coconut Flavor mean score / Watermelon Flavor mean score / Raspberry Flavor mean score / Artificial/Chemical Note mean score / Sweet Aftertaste mean score / Bitter Aftertaste mean score / Overall Liking mean score: scale not given here
Description: Thirty panel members evaluated two samples of raspberry watermelon flavored coconut water for overall acceptance and attribute intensities (sweetness, Raspberry flavor, watermelon flavor, coconut water flavor, saltiness, bitterness, and sweet aftertaste, bitter aftertaste) in two sessions. In session one, the two samples included: 1) store-bought Raspberry Watermelon Coconut Water control sample and 2) store-bought Raspberry Watermelon Coconut Water test sample containing Reb AM. The objective of the test was to determine if the addition of Reb AM affects the flavor profile of a non-alcoholic beverage.
The test objective is to determine if the flavor profile and overall acceptance of a Control sample of flavored coconut water differs from a Test sample of the same beverage containing Reb AM.

[5] = Solubility characteristics and solution stability in water; assay type: physicochemical; conditions: for Solubility: summary of solution stability in water
Protocol: Solubility characteristics were measured as follows. Prepare the following solutions in water and stir at 700 rpm for each. Add heat if necessary at 2 minutes and 30 seconds of stirring. Using a stopwatch, determine how long it takes all powder to dissolve completely and record the temperature at which it dissolves. The following table summarizes the solubility characteristics of Rebaudiosides D, M, and AM.

[6] = Taste panel of no-calorie Lemon-lime carbonated soft drink; assay type: in vivo, human; conditions: 500 ppm in Lemon-lime CSD
Description: A group of trained and experienced taste panel members evaluated no-calorie Lemon-lime carbonated soft drink (CSD) sweetened with 500 ppm of Reb AM, Reb D, or Reb M samples.

[7] = FEMA GRAS publication; cited from earlier work
[8] = 50 ppm Reb AM added to shake with 300 ppm Reb A, 95% confidence
[9] = NSA Chocolate Vanilla Protein Dairy Shake w Reb A & 50 ppm Reb AM, 30 panelists
[10] = 1.5% Sucrose vs 30 ppm Reb AM in neutral water
[11] = 1.5% Sucrose vs 50 ppm Reb AM in neutral water
[12] = 1.5% Sucrose vs 70 ppm of Reb AM in neutral water
[13] = 1.5% Sucrose vs 100 ppm Reb AM in neutral water
[14] = 50 ppm Reb AM in coconut water, 95% confidence
[15] = Coconut water (raspberry/watermelon flavor) with 50 ppm of Reb AM, 30 panelists

C=C1C[C@@]23CC[C@H]4[C@@](C)(CCC[C@@]4(C)C(=O)O[C@@H]4O[C@H](CO)[C@@H](O)[C@H](O[C@@H]5O[C@H](CO)[C@@H](O)[C@H](O)[C@H]5O)[C@H]4O[C@@H]4O[C@H](CO)[C@@H](O)[C@H](O)[C@H]4O)[C@@H]2CC[C@]1(O[C@@H]1O[C@H](CO)[C@@H](O)[C@H](O)[C@H]1O[C@@H]1O[C@H](CO)[C@@H](O)[C@H](O)[C@H]1O)C3 [Reb AM, Rebaudioside AM]
Sweetness Equivalent (ppm) in Water ([1]; 2.5% SE): 150 ppm | Sweetness Potency in Water ([1]; 2.5% SE): 167 x sugar equivalent | Sweetness Equivalent (ppm) in Water ([1]; 5.0% SE): 365 ppm | Sweetness Potency in Water ([1]; 5.0% SE): 137 x sugar equivalent | Sweetness Equivalent (ppm) in Water ([1]; 7.5% SE): 869 ppm | Sweetness Potency in Water ([1]; 7.5% SE): 86 x sugar equivalent | Sweetness Equivalent (ppm) in Water ([1]; 10.0% SE): 1750 ppm | Sweetness Potency in Water ([1]; 10.0% SE): 57 x sugar equivalent | impact on sweetness intensity ([2]; 50 ppm Reb AM added to shake with 300 ppm Reb A): no significant impact | bitter aftertaste vs control [2, 8]: lower | bitterness vs control [2, 8]: significantly lower | cocoa flavor vs control [2, 8]: significantly higher | dairy notes vs control [2, 8]: significantly higher | metallic note vs control [2, 8]: significantly lower | overall liking vs control [2, 8]: significantly higher | vanilla flavor vs control [2, 8]: significantly higher | whey protein vs control [2, 8]: significantly lower | Bitter Aftertaste mean score [2, 9]: 0.77 | Bitterness mean score [2, 9]: 1.46 | Cocoa Flavor mean score [2, 9]: 4.55 | Dairy Note mean score [2, 9]: 4.59 | Metallic Note mean score [2, 9]: 1.48 | Overall Liking mean score [2, 9]: 5.59 | Sweet Aftertaste mean score [2, 9]: 1.65 | Sweet Intensity mean score [2, 9]: 5.98 | Vanilla Note mean score [2, 9]: 2.52 | Whey Protein Note mean score [2, 9]: 4.32 | % Frequency [3, 10]: 3.3% | PC (paired comparison count, panelists choosing the sample as sweeter) [3, 10]: 1 | % Frequency [3, 11]: 23.3% | PC (paired comparison count, panelists choosing the sample as sweeter) [3, 11]: 7 | % Frequency [3, 12]: 70% | PC (paired comparison count, panelists choosing the sample as sweeter) [3, 12]: 21 | % Frequency [3, 13]: 90% | PC (paired comparison count, panelists choosing the sample as sweeter) [3, 13]: 27 | Sweetness perception compared with 1.5% sugar solution ([3]; 50 ppm in water): significantly lower | Sweetness Perception Threshold Concentration ([3]; neutral water, vs 1.5% sugar solution): 50 ppm | sweet aftertaste intensity vs control ([4]; 50 ppm Reb AM in coconut water, 90% confidence): significantly lower | coconut water flavor vs control [4, 14]: significantly higher | mango peach flavor vs control [4, 14]: significantly higher | overall liking vs control [4, 14]: significantly higher | watermelon flavor vs control [4, 14]: significantly higher | Artificial/Chemical Note mean score [4, 15]: 2.55 | Astringency mean score [4, 15]: 1.10 | Bitter Aftertaste mean score [4, 15]: 0.29 | Bitter Intensity mean score [4, 15]: 0.24 | Coconut Flavor mean score [4, 15]: 5.11 | Overall Liking mean score [4, 15]: 5.04 | Raspberry Flavor mean score [4, 15]: 0.95 | Sweet Aftertaste mean score [4, 15]: 1.33 | Sweet Intensity mean score [4, 15]: 4.44 | Watermelon Flavor mean score [4, 15]: 4.41 | Comment on solubility ([5]; Test Conc. 1%): Easily Soluble | Dissolution in water (Heated) ([5]; Test Conc. 1%): No heat needed | Dissolution water (Ambient), stirring time ([5]; Test Conc. 1%): Stirred for 3 min | Solution after 24 hrs ([5]; Test Conc. 1%): Clear | Solution after 48 hrs ([5]; Test Conc. 1%): Clear | Comment on solubility ([5]; Test Conc. 5%): Easily Soluble | Dissolution in water (Heated), temperature ([5]; Test Conc. 5%): 45 C. | Solution after 24 hrs ([5]; Test Conc. 5%): Clear | Solution after 48 hrs ([5]; Test Conc. 5%): Clear | Comment on solubility ([5]; Test Conc. 10%): Moderately | Dissolution in water (Heated), temperature ([5]; Test Conc. 10%): 54 C. | Solution after 24 hrs ([5]; Test Conc. 10%): Clear | Solution after 48 hrs ([5]; Test Conc. 10%): Slight | Solubility [5]: 10% | Solubility compared with other steviol glycosides ([5]; water): significantly higher solubility than other minor and major steviol glycosides | bitterness compared to CSD with Reb D or Reb M [6]: significantly less | sweetness compared to CSD with Reb D or Reb M [6]: less sweet | sweetness lingering compared to CSD with Reb D or Reb M [6]: significantly less

C=C1C[C@@]23CC[C@H]4[C@@](C)(CCC[C@@]4(C)C(=O)O[C@@H]4O[C@H](CO)[C@@H](O)[C@H](O)[C@H]4O[C@@H]4O[C@H](CO)[C@@H](O)[C@H](O)[C@H]4O)[C@@H]2CC[C@]1(O[C@@H]1O[C@H](CO)[C@@H](O)[C@H](O[C@@H]2O[C@H](CO)[C@@H](O)[C@H](O)[C@H]2O)[C@H]1O[C@@H]1O[C@H](CO)[C@@H](O)[C@H](O)[C@H]1O)C3 [Reb D, rebaudioside D]
Sweetness Equivalent (ppm) in Water ([1]; 2.5% SE): 62 ppm | Sweetness Potency in Water ([1]; 2.5% SE): 403 x sugar equivalent | Sweetness Equivalent (ppm) in Water ([1]; 5.0% SE): 212 ppm | Sweetness Potency in Water ([1]; 5.0% SE): 236 x sugar equivalent | Sweetness Equivalent (ppm) in Water ([1]; 7.5% SE): 500 ppm | Sweetness Potency in Water ([1]; 7.5% SE): 150 x sugar equivalent | Sweetness Equivalent (ppm) in Water ([1]; 10.0% SE): 926 ppm | Sweetness Potency in Water ([1]; 10.0% SE): 108 x sugar equivalent | Sweetness Perception Threshold Concentration [7]: 32.5 ppm | Comment on solubility ([5]; Test Conc. 0.05%): Easily Soluble | Dissolution in water (Heated), temperature ([5]; Test Conc. 0.05%): temp: 39 deg. C. | Solution after 24 hrs ([5]; Test Conc. 0.05%): Clear | Solution after 48 hrs ([5]; Test Conc. 0.05%): Clear | Comment on solubility ([5]; Test Conc. 0.1%): Easily Soluble | Dissolution in water (Heated), temperature ([5]; Test Conc. 0.1%): temp: 72 deg. C. | Solution after 24 hrs ([5]; Test Conc. 0.1%): Clear | Solution after 48 hrs ([5]; Test Conc. 0.1%): Clear | Comment on solubility ([5]; Test Conc. 0.3%): Requires | Dissolution in water (Heated), temperature ([5]; Test Conc. 0.3%): 78.5 deg. C. | Solubility [5]: 0.1%

C=C1C[C@@]23CC[C@H]4[C@@](C)(CCC[C@@]4(C)C(=O)O[C@@H]4O[C@H](CO)[C@@H](O)[C@H](O[C@@H]5O[C@H](CO)[C@@H](O)[C@H](O)[C@H]5O)[C@H]4O[C@@H]4O[C@H](CO)[C@@H](O)[C@H](O)[C@H]4O)[C@@H]2CC[C@]1(O[C@@H]1O[C@H](CO)[C@@H](O)[C@H](O[C@@H]2O[C@H](CO)[C@@H](O)[C@H](O)[C@H]2O)[C@H]1O[C@@H]1O[C@H](CO)[C@@H](O)[C@H](O)[C@H]1O)C3 [Reb M, rebaudioside M]
Sweetness Equivalent (ppm) in Water ([1]; 2.5% SE): 84 ppm | Sweetness Potency in Water ([1]; 2.5% SE): 298 x sugar equivalent | Sweetness Equivalent (ppm) in Water ([1]; 5.0% SE): 209 ppm | Sweetness Potency in Water ([1]; 5.0% SE): 239 x sugar equivalent | Sweetness Equivalent (ppm) in Water ([1]; 7.5% SE): 418 ppm | Sweetness Potency in Water ([1]; 7.5% SE): 179 x sugar equivalent | Sweetness Equivalent (ppm) in Water ([1]; 10.0% SE): 832 ppm | Sweetness Potency in Water ([1]; 10.0% SE): 90 x sugar equivalent | Sweetness Perception Threshold Concentration [7]: 24 ppm | Comment on solubility ([5]; Test Conc. 0.1%): Easily Soluble | Dissolution in water (Heated), time ([5]; Test Conc. 0.1%): No heat needed | Dissolution water (Ambient), time of agitation ([5]; Test Conc. 0.1%): 12 minutes of | Solution after 24 hrs ([5]; Test Conc. 0.1%): Clear | Solution after 48 hrs ([5]; Test Conc. 0.1%): Clear | Comment on solubility ([5]; Test Conc. 0.3%): Moderately | Dissolution in water (Heated), temperature ([5]; Test Conc. 0.3%): Heated to 99 deg C. deg. C. | Solution after 24 hrs ([5]; Test Conc. 0.3%): Clear | Solution after 48 hrs ([5]; Test Conc. 0.3%): Slight | Comment on solubility ([5]; Test Conc. 0.5%): Requires | Dissolution in water (Heated), temperature ([5]; Test Conc. 0.5%): 87 deg. C. with | Dissolution in water (Heated), time ([5]; Test Conc. 0.5%): agitation. 16 min | Solution after 24 hrs ([5]; Test Conc. 0.5%): Moderate | Solubility [5]: 0.3%

OC[C@H]1O[C@@](CO)(O[C@H]2O[C@H](CO)[C@@H](O)[C@H](O)[C@H]2O)[C@@H](O)[C@@H]1O [Sucrose]
% Frequency [3, 10]: 96.7% | PC (paired comparison count, panelists choosing the sample as sweeter) [3, 10]: 29 | % Frequency [3, 11]: 76.7% | PC (paired comparison count, panelists choosing the sample as sweeter) [3, 11]: 23 | % Frequency [3, 12]: 30% | PC (paired comparison count, panelists choosing the sample as sweeter) [3, 12]: 9 | % Frequency [3, 13]: 10% | PC (paired comparison count, panelists choosing the sample as sweeter) [3, 13]: 3
